# Read-outs that look alike come from different tables or passages of the source.
# Target: T1, human DGAT1 expressed in insect cell membranes (Homo sapiens, UniProt O75907)
# T1 construct: made in house; host or cells: sf9 insect cells (baculovirus), membrane fraction
# T1 sequence (O75907 1-488): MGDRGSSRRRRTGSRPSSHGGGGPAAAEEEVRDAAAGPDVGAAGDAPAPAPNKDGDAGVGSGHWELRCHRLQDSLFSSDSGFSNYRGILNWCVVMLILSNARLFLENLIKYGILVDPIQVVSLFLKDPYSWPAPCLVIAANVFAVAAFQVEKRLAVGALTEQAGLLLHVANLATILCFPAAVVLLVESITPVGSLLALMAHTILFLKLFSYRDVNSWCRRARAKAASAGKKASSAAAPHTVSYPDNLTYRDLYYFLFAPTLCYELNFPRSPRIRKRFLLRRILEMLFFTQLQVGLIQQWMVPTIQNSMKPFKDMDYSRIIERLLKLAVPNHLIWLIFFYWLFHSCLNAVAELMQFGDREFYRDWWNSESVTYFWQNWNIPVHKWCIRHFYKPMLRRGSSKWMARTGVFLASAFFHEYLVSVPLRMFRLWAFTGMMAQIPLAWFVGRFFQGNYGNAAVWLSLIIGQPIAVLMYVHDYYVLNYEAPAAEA
# Assay: Human Enzyme Assay: in vitro DGAT1 inhibition, 14C oleoyl coenzyme A incorporation into triolein
# Format: biochemical
# Experimental: Briefly, sf9 cells were infected with recombinant baculovirus containing human DGAT1 coding sequences and harvested after 48 h. […] The membrane fraction at the interphase was collected, washed, and stored in liquid nitrogen.
# The reaction was started by adding ^14C oleoyl coenzyme A (30 μM final concentration) and incubated at room temperature for 30 minutes. The reaction was stopped by adding 200 μl 2-propanol:heptane 7:1. Radioactive triolein product was separated into the organic phase by adding 300 μl heptane and 100 μl 0.1 M carbonate buffer pH 9.5. DGAT1 activity was quantified by counting aliquots of the upper heptane layer by liquid scintillography.
# Stated figures are usually a mean of a number of measurements (usually 2 measurements) according to standard practice.
# [1] = acetone concentration not stated for these values, usually a mean of 2 measurements, read-out: IC50
Structure (SMILES),IC50 [1] [nM],IC50 [nM],"IC50 (assay acetone concentration of 1.8%, read-out: IC50) [nM]"
"NC(=O)c1nc(-c2ccc([C@H]3CC[C@H](CC(=O)O)CC3)cc2)cnc1N [Example 18, 3-Carbamoyl-5-{4-[trans-4-(carboxymethyl)cyclohexyl]phenyl}pyrazin-2-aminium chloride]",2850,–,–
"Cc1nc(C)c(-c2ccc([C@H]3CC[C@H](C(C)(C)C(=O)O)CC3)cc2)nc1C(N)=O [Example 42, 2-((1r,4r)-4-(4-(6-Carbamoyl-3,5-dimethylpyrazin-2-yl)phenyl)cyclohexyl)-2-methylpropanoic acid]",210,–,–
"Cc1nc(C)c(-c2ccc([C@H]3CC[C@H](CC(=O)O)CC3)cc2)nc1C(N)=O [Example 1, {trans-4-[4-(6-Carbamoyl-3,5-dimethylpyrazin-2-yl)phenyl]cyclohexyl}acetic acid]",–,79,16
